Laboratory results published in patent publication US12337000B2, “Therapeutic modulators of the reverse mode of ATP synthase” (priority 2017, dated 2025).
“Also recorded” adds a separate entry of the source. Where two headings read alike, the source gives them in different places.

Tests used:
[1] = tested on: 59 cancer cell lines (NCI-60); experiment: NCI-60 one-dose in vitro assay; assay type: cell-based, human; details: for inhibition at 10 µM / inhibition at 100 µM: Homo sapiens; for inhibition at 10 µM: 48 hours, read-out: mean cancer growth inhibition, across all 59 cancer cell lines; for inhibition at 10 µM / anti-cancer activity (in words): 10 μM
Source text: FIGS. 1, 2, 3, 4, 5, 6, 7, 8 show results from the NCI-60 one-dose in vitro assay at the Developmental Therapeutics Program (DTP), at the National Cancer Institute (NCI, Bethesda, MD, USA). Its protocol is well known to those of the art, and it tests the effect, if any, of a test compound on the growth/survivability of a cancer cell line as compared to the no compound control. […] However, a constant is that there is always representative cell lines from leukemia, melanoma and cancers of the lung, colon, brain, ovary, breast, prostate and kidney. In a one-dose NCI compound test report, NCI report a number for each cell line, which they call “Growth Percent”, which is its growth relative to the no-compound control, and relative to the time zero number of cells. This reported parameter allows detection of both growth inhibition (values between 0 and 100) and lethality (values less than 0). For example, an NCI “Growth Percent” value of 100 means no growth inhibition. Value of 40 means 60% growth inhibition. Value of 0 means no net growth over the course of the experiment. Value of −40 means 60% lethality. Value of −100 means all cells are dead. I don't present NCI one-dose data in this original format. Instead, if the NCI “Growth Percent” value for a cell is positive, it is manipulated: [100 minus this original NCI-60 “Growth Percent” data point], to yield the percentage “Growth Inhibition”. If the original NCI “Growth Percent” value for a cell is negative, it is made positive to be the percentage of original cancer cells (at time zero) killed: “Percentage Killed” {and in these cases, of course, all growth has been inhibited, so percentage “Growth Inhibition” is then specified to be 100% for this cancer cell line}. In my one-dose figures, “Growth Inhibition” (0-100%) is presented on the x-axis and, if applicable, “Percentage Killed” (0-100%) further along on the x-axis. The latter is applicable when there is not just cancer growth inhibition but a reduction in the number of cancer cells from the start time i.e. when the compound is not merely slowing cancer growth, but is actively reducing the number of cancer cells from the starting number. In cases where there is only growth inhibition, only “Growth inhibition” is presented on the x-axis.
NCI-60 tests are performed at a controlled temperature of 37° C..
To perform the anti-cancer testing reported: BMS-199264 hydrochloride was purchased from Sigma-Aldrich. BTB06584 was purchased from AdooQ Bioscience, Irvine, CA, USA. Compounds 19a (separated into 6a and 6b stereoisomers) and 31 were synthesized by reaction schemes disclosed herein. Almitrine dimesylate was purchased from Ak Scientific, Palo Alto, CA, USA.

F1F0 ATP hydrolase = target: T1, F1F0 ATP hydrolase (Bos taurus, UniProt P00829+P19483); details: cited from earlier work; for IC50: [5-6], read-out: IC50 reverse mode of ATP synthase
T1 construct: from tissue; host or cells: sub-mitochondrial particles (SMPs)

[2] = Enantiomeric excess (ee) stability experiments; assay type: physicochemical; details: FIG. 16
Source text: FIG. 16. The enantiomeric excess (ee) of 6a and 6b is […] in presented ee stability experiments. […] This ee instability in biological media is an unexpected result. This finding is componentry to the invention of this disclosure, as are any modifications to the structure of 6a or 6b to slow their ee erosion due to epimerization/racemization. The ee instability is unexpected because it runs contrary to theory. The 2nd order rate constant (kgb) for general-base catalysed racemization can be predicted for 6a and 6b by theory from (and its supplementary information, all incorporated by reference). Joined to the stereogenic carbon of 6a and 6b there is a phenyl group, alkyl and a guanidine group: ΣΔΔG(R1,R2,R3)=[…]=−36.2 kcal/mol. The value for the guanidine group (19.1) is not from but from one of its authors, Dr. Andrew Leach, by personal communication, who sourced it by quantum mechanical calculation with the Gaussian 03 software package. The cross-conjugation correction was not applied in this case because Dr. Leach wrote “I would not expect guanidine to be a conjugating group”. log(kgb)=−0.11*ΣΔΔG(R1,R2,R3)−9.81, ∴Kgb=0.00000148593 M^−1s^−1. This is not particularly fast. Racemization might occur faster for 6a and 6b in cells than predicted by theory because their high lipophibicity concentrates them in biological membranes. […]

[3] = In vivo mouse study of 6a and 6b, rectal temperature and survival at 22° C. room temperature; design: species or system Mus Musculus C57BL/6; details: for effect on rectal temperature (in words): in vivo, iv
Protocol: FIG. 15. In vivo study of compounds 6a and 6b, conducted at 22° C. room temperature. METHODOLOGY: 4 mice were used and in the presented table “Day” refers to the number of days since the 1st drug/vehicle dose on Day 1. Some experimental details: intravenous (IV) administration (tail vein), dosing volume=10 μl/g, solution (not suspension), sterilised (0.22 μm filter) vortexed vehicle=12.5% solutol, 12.5% ethanol, 75% water, IV solutions freshly prepared before injection except on days 22 and 39 when solutions prepared on previous dosing days were used (sub-optimal), Female Mus Musculus C57BL/6 strain, 6-8 weeks old at study start, mice sourced from Shanghai Lingchang Bio-Technology Co. Ltd, mice were observed/quarantined for a few days after arrival and before dosing, ad libitum Co^60 irradiation sterilized dry granule food & reverse osmosis autoclaved water, corn cob bedding, polysulfone individually ventilated cage (IVC, containing up to 5 animals): 325 mm×210 mm×180 mm, 12 hour light/dark cycle, 40-70% humidity, 20-26° C. room temperature, StudyDirector™ software (Studylog Systems, Inc. CA, USA) used to allocate/randomize control/treatment groups, animals marked by ear coding (notch), care and use of animals in accordance with the regulations of the Association for Assessment and Accreditation of Laboratory Animal Care (AAALAC), when recording rectal temperature: care was taken to ensure constant depth of probe insertion across different recordings, time was afforded for rectal probe temperature to equilibrate with rectal temperature, and time was afforded between recordings for probe temperature to reset.

[4] = tested on: 59 different cancer cell lines (NCI-60); experiment: NCI-60 five-dose in vitro assay; assay type: cell-based; details: Homo sapiens, read-out: mean GI50 of all 59 cell lines
Source text: Results are from the NCI-60 five-dose in vitro assay at the Developmental Therapeutics Program (DTP), at the National Cancer Institute (NCI, Bethesda, MD, USA). […] These graphs are as outputted by the NCI but changed from colour to black and white. On the y-axis of each is the aforementioned “Growth Percent” parameter used by NCI, which is growth relative to the no-compound control, and relative to the time zero number of cells.

[5] = tested on: HL-1 cardiac muscle cell line; details: 3 μM, HL-1 cells, data from [12]; cited from earlier work
[6] = 1.9 g/kg intraperitoneal, 24.5 to 25° C. ambient temperature [100]; cited from earlier work
[7] = tested on: 59 cancer cell lines (NCI-60); details: 10 μM, NCI-60 one-dose, NSC: 760347 in [16], cited from earlier work
[8] = mice, intraperitoneal injection (IP); cited from earlier work
[9] = Human pharmacokinetics of oral almitrine dimesylate; assay type: in vivo; details: human, plasma; single 200 mg oral dose, humans [121]; read-out: mean cmax plasma concentration
[10] = cited from earlier work
[11] = tested on: 59 different cancer cell lines (NCI-60); details: NCI-60 five-dose, from Table 1 of [30]; cited from earlier work
[12] = target: reverse mode of ATP synthase (Homo sapiens, UniProt P06576+P25705+P48047); details: [P4]; cited from earlier work
[13] = target: forward mode of ATP synthase (Homo sapiens, UniProt P06576+P25705+P48047); details: [P4]; cited from earlier work
ex vivo rat heart = details: 10 μM [11]; cited from earlier work
F1F0 ATP synthesis = target: T2, F1F0 ATP synthesis (Bos taurus, UniProt P00829+P19483); details: SMP assays, [5-8]; cited from earlier work
T2 construct: are from sub-mitochondrial (SMP) studies in [5-8]; from tissue; host or cells: sub-mitochondrial particles (SMPs)

[14] = read-out: median cancer growth inhibition

For N#Cc1cccc(C(=O)/N=C(\Nc2ccc(Cl)cc2)N[C@H](Cn2ccnc2)c2ccc(Cl)cc2Cl)c1 [Compound 6b], the inhibition at 10 µM [1] is listed as 66%, the inhibition at 100 µM [1, 14] is listed as greater than 79% and the IC50 (F1F0 ATP hydrolase) is listed as 0.018 µM. For the same compound, the “enantiomeric excess (ee) stability” value [2] was “stable”, the “time to death after IV injection” value ([3]; 20 mg/kg IV) was roughly 210 min and the “survival time after IV injection” value ([3]; 40 mg/kg IV, found dead the next day) was greater than 6 h. The “effect on rectal temperature (in words)” value ([3]; mouse) was “potently reduces rectal temperature” and the GI50 [4] was 0.446 µM.

For CC[C@H]1/C=C/C=C/C[C@@H](C)[C@H](O)[C@@](C)(O)C(=O)[C@@H](C)[C@H](O)[C@@H](C)C(=O)[C@@H](C)[C@H](O)[C@@H](C)/C=C/C(=O)O[C@@H]2[C@H](C)[C@H](CC1)O[C@@]1(O[C@@H](C[C@@H](C)O)[C@@H](C)CC1=O)[C@H]2C [Oligomycin B], the “change of O2 consumption” value [5] is listed as −40%.

For CCO [ethanol], the “reduction of body temperature” value [6] is given as 1.6 °C.

In the case of CCN1CC(CCN2CCOCC2)C(c2ccccc2)(c2ccccc2)C1=O (centres unmarked) [Doxapram], the “median % cancer growth inhibition” value [7] is given as −2.3% and the “mean % cancer growth inhibition” value ([7]; negative = growth promotion) is given as −3.7%.

For C=CCNc1nc(NCC=C)nc(N2CCN(C(c3ccc(F)cc3)c3ccc(F)cc3)CC2)n1.CS(=O)(=O)O [almitrine dimesylate, 6-[4-[bis(4-fluorophenyl)methyl]piperazin-1-yl]-2-N,4-N-bis(prop-2-enyl)-1,3,5-triazine-2,4-diamine methanesulfonic acid], the “anti-cancer activity (in words)” value [1] is given as “Anti-cancer activity”, the “anti-cancer activity (in words)” value ([1]; listed as almitrine dismesylate) is given as “greater anti-cancer activity than carboplatin” and the LD50 [8] is given as 370 mg/kg. For the same compound, the Cmax [9] was 600 nM, the “plasma [almitrine]” value ([10]; 24 hours after 200 mg oral dose [121]) was roughly 50 ng/mL and the oral bioavailability ([10]; humans [121]) was 70%. The “mean cmax plasma concentration” value ([10]; single 150 mg oral dose, humans [123]) was 379 ng/mL and the “mean cmax plasma concentration” value ([10]; single 200 mg oral dose, humans [121]) was 286 ng/mL.

In the case of N.N.[Cl][Pt][Cl] [cisplatin], the GI50 [11] is listed as 1.4 µM.

In the case of CN1C(=O)C(Cc2ccc3ccccc3c2)N=C(c2ccc(O)cc2)c2cc(Cl)ccc21 (centres unmarked) [Bz-423], the EC50 [12] is listed as 8.9 µM and the EC50 [13] is listed as 5.5 µM.

In the case of CC1(C)Oc2ccc(S(=O)(=O)N3CCCCC3)cc2[C@@H](N(Cc2ncc[nH]2)c2ccc(Cl)cc2)[C@@H]1O [BMS-199264], the inhibition at 100 µM ([1]; read-out: Mean % cancer growth inhibition) is listed as greater than 100%, the “harm to normal cells (ex vivo rat heart)” value (ex vivo rat heart) is listed as “doesn't harm; also recorded: does not harm” and the GI50 [4] is listed as 3.9 µM. The EC50 (F1F0 ATP synthesis) was 18 µM.

In the case of N#Cc1cccc(C(=O)/N=C(\Nc2ccc(Cl)cc2)N[C@@H](Cn2ccnc2)c2ccc(Cl)cc2Cl)c1 [Compound 6a], the inhibition at 10 µM [1] is listed as 57%, the inhibition at 100 µM [1, 14] is listed as greater than 79% and the EC50 (F1F0 ATP hydrolase; SMP studies in [5-8], read-out: EC50 F1F0 ATP hydrolysis / hydrolase) is listed as greater than 100 µM. The IC50 (F1F0 ATP hydrolase) was greater than 100 µM, the “enantiomeric excess (ee) stability” value [2] was “stable” and the LD50 ([3]; female, C57BL/6, in vivo, mouse, IV) was greater than 40 mg/kg. The “effect on rectal temperature (in words)” value ([3]; mouse) was “does not” and the GI50 [4] was 0.666 µM.
